In PubChem BioAssay AID1259407 (Chemical Carcinogenesis Research Information System (CCRIS), 2018):
Activity calls are given as the source filed them. The rule behind the calls is not given here.

Tested on: CCRIS mutagenicity, Ames/micronucleus/aberration tests
Assay: CCRIS mutagenicity studies
[1] = Test System: AMES SALMONELLA TYPHIMURIUM, Strain/Indicator: TA98, Metabolic Activation: NONE, Method: PREINCUBATION
[2] = Test System: AMES SALMONELLA TYPHIMURIUM, Strain/Indicator: TA100, Metabolic Activation: NONE, Method: PREINCUBATION
[3] = Test System: AMES SALMONELLA TYPHIMURIUM, Strain/Indicator: TA1535, Metabolic Activation: NONE, Method: PREINCUBATION
[4] = Test System: AMES SALMONELLA TYPHIMURIUM, Strain/Indicator: TA1537, Metabolic Activation: NONE, Method: PREINCUBATION
[5] = Test System: AMES SALMONELLA TYPHIMURIUM, Strain/Indicator: TA98, Metabolic Activation: RAT, LIVER, S-9, PHENOBARBITAL AND 5,6-BENZOFLAVONE, Method: PREINCUBATION
[6] = Test System: AMES SALMONELLA TYPHIMURIUM, Strain/Indicator: TA100, Metabolic Activation: RAT, LIVER, S-9, PHENOBARBITAL AND 5,6-BENZOFLAVONE, Method: PREINCUBATION
[7] = Test System: AMES SALMONELLA TYPHIMURIUM, Strain/Indicator: TA98, Metabolic Activation: NONE, Method: STANDARD PLATE
[8] = Test System: AMES SALMONELLA TYPHIMURIUM, Strain/Indicator: TA98, Metabolic Activation: RAT, LIVER, S-9, AROCLOR 1254, Method: STANDARD PLATE
[9] = Test System: AMES SALMONELLA TYPHIMURIUM, Strain/Indicator: TA100, Metabolic Activation: NONE, Method: STANDARD PLATE
[10] = Test System: AMES SALMONELLA TYPHIMURIUM, Strain/Indicator: TA100, Metabolic Activation: RAT, LIVER, S-9, AROCLOR 1254, Method: STANDARD PLATE

CCCCNC(=O)c1cc(N)ccc1OC1CCCCC1
mutagenic call (Test System: Ames Salmonella typhimurium, Strain/Indicator: TA98, Metabolic Activation: None, Method: Preincubation): inactive; negative. data given only in abstract. | mutagenic call (Test System: Ames Salmonella typhimurium, Strain/Indicator: TA98, Metabolic Activation: Rat, Liver, S-9, Phenobarbital and beta-naphthoflavone, Method: Preincubation): active; positive. a hydroxylated form of pa7 appears to be the active component. | mutagenic call (Test System: Ames Salmonella typhimurium, Strain/Indicator: TA100, Metabolic Activation: None, Method: Preincubation): inactive; negative. data given only in abstract. | mutagenic call (Test System: Ames Salmonella typhimurium, Strain/Indicator: TA100, Metabolic Activation: Rat, Liver, S-9, Phenobarbital and beta-naphthoflavone, Method: Preincubation): active; positive. a hydroxylated form of pa7 appears to be the active component. | mutagenic call (Test System: Ames Salmonella typhimurium, Strain/Indicator: TA102, Metabolic Activation: None, Method: Preincubation): inactive; negative. data given only in abstract. | mutagenic call (Test System: Ames Salmonella typhimurium, Strain/Indicator: TA1535, Metabolic Activation: None, Method: Preincubation): inactive; negative. data given only in abstract. | mutagenic call (Test System: Ames Salmonella typhimurium, Strain/Indicator: TA1537, Metabolic Activation: None, Method: Preincubation): inactive; negative. data given only in abstract.

Brc1ccc(-c2ccccc2)cc1
mutagenic call (Test System: AMES SALMONELLA TYPHIMURIUM, Strain/Indicator: TA98, Metabolic Activation: HAMSTER, LIVER, S-9, AROCLOR 1254, Method: PREINCUBATION): inactive; negative | mutagenic call [1]: inactive; negative | mutagenic call (Test System: AMES SALMONELLA TYPHIMURIUM, Strain/Indicator: TA98, Metabolic Activation: RAT, LIVER, S-9, AROCLOR 1254, Method: PREINCUBATION): inactive; negative | mutagenic call (Test System: AMES SALMONELLA TYPHIMURIUM, Strain/Indicator: TA100, Metabolic Activation: HAMSTER, LIVER, S-9, AROCLOR 1254, Method: PREINCUBATION): inactive; negative | mutagenic call [2]: inactive; negative | mutagenic call (Test System: AMES SALMONELLA TYPHIMURIUM, Strain/Indicator: TA100, Metabolic Activation: RAT, LIVER, S-9, AROCLOR 1254, Method: PREINCUBATION): inactive; negative | mutagenic call (Test System: AMES SALMONELLA TYPHIMURIUM, Strain/Indicator: TA1535, Metabolic Activation: HAMSTER, LIVER, S-9, AROCLOR 1254, Method: PREINCUBATION): inactive; negative | mutagenic call [3]: inactive; negative | mutagenic call (Test System: AMES SALMONELLA TYPHIMURIUM, Strain/Indicator: TA1535, Metabolic Activation: RAT, LIVER, S-9, AROCLOR 1254, Method: PREINCUBATION): inactive; negative | mutagenic call (Test System: AMES SALMONELLA TYPHIMURIUM, Strain/Indicator: TA1537, Metabolic Activation: HAMSTER, LIVER, S-9, AROCLOR 1254, Method: PREINCUBATION): inactive; negative | mutagenic call [4]: inactive; negative | mutagenic call (Test System: AMES SALMONELLA TYPHIMURIUM, Strain/Indicator: TA1537, Metabolic Activation: RAT, LIVER, S-9, AROCLOR 1254, Method: PREINCUBATION): inactive; negative

CC1=CC(=O)C(C(C)C)=CC1=O
mutagenic call [1]: inactive; negative | mutagenic call [5]: inactive; negative | mutagenic call [2]: inactive; negative | mutagenic call [6]: inactive; negative | mutagenic call (Test System: AMES SALMONELLA TYPHIMURIUM, Strain/Indicator: TA102, Metabolic Activation: NONE, Method: PREINCUBATION): inactive; negative | mutagenic call (Test System: AMES SALMONELLA TYPHIMURIUM, Strain/Indicator: TA102, Metabolic Activation: RAT, LIVER, S-9, PHENOBARBITAL AND 5,6-BENZOFLAVONE, Method: PREINCUBATION): inactive; negative | mutagenic call (Test System: AMES SALMONELLA TYPHIMURIUM, Strain/Indicator: TA104, Metabolic Activation: RAT, LIVER, S-9, PHENOBARBITAL AND 5,6-BENZOFLAVONE, Method: PREINCUBATION): inactive; negative | mutagenic call (Test System: AMES SALMONELLA TYPHIMURIUM, Strain/Indicator: TA2637, Metabolic Activation: NONE, Method: PREINCUBATION): active; positive | mutagenic call (Test System: AMES SALMONELLA TYPHIMURIUM, Strain/Indicator: TA2637, Metabolic Activation: RAT, LIVER, S-9, PHENOBARBITAL AND 5,6-BENZOFLAVONE, Method: PREINCUBATION): inactive; negative

COC(=O)C1=C(C)NC(C)=C(C(=O)OCCc2ccc(N3CCN(C(c4ccccc4)c4ccccc4)CC3)cc2)C1c1cccc([N+](=O)[O-])c1 (stereo not given)
mutagenic call [1]: inactive; negative | mutagenic call [5]: inactive; negative | mutagenic call [2]: inactive; negative | mutagenic call [6]: inactive; negative | mutagenic call [3]: inactive; negative | mutagenic call (Test System: AMES SALMONELLA TYPHIMURIUM, Strain/Indicator: TA1535, Metabolic Activation: RAT, LIVER, S-9, PHENOBARBITAL AND 5,6-BENZOFLAVONE, Method: PREINCUBATION): inactive; negative | mutagenic call [4]: inactive; negative | mutagenic call (Test System: AMES SALMONELLA TYPHIMURIUM, Strain/Indicator: TA1537, Metabolic Activation: RAT, LIVER, S-9, PHENOBARBITAL AND 5,6-BENZOFLAVONE, Method: PREINCUBATION): inactive; negative | mutagenic call (Test System: E. COLI, Strain/Indicator: WP2 UVRA, Metabolic Activation: NONE, Method: PREINCUBATION): inactive; negative | mutagenic call (Test System: E. COLI, Strain/Indicator: WP2 UVRA, Metabolic Activation: RAT, LIVER, S-9, PHENOBARBITAL AND 5,6-BENZOFLAVONE, Method: PREINCUBATION): inactive; negative

O=c1cc(-c2ccc(O)cc2)oc2cc(O)cc(O)c12
mutagenic call (Test System: AMES SALMONELLA TYPHIMURIUM, Strain/Indicator: TA97, Metabolic Activation: NONE, Method: STANDARD PLATE): inactive; negative | mutagenic call (Test System: AMES SALMONELLA TYPHIMURIUM, Strain/Indicator: TA97, Metabolic Activation: RAT, LIVER, S-9, AROCLOR 1254, Method: STANDARD PLATE): inactive; negative | mutagenic call [7]: inactive; negative | mutagenic call [8]: inactive; negative | mutagenic call [9]: inactive; negative | mutagenic call [10]: inactive; negative | mutagenic call (Test System: AMES SALMONELLA TYPHIMURIUM, Strain/Indicator: TA102, Metabolic Activation: NONE, Method: STANDARD PLATE): inactive; negative | mutagenic call (Test System: AMES SALMONELLA TYPHIMURIUM, Strain/Indicator: TA102, Metabolic Activation: RAT, LIVER, S-9, AROCLOR 1254, Method: STANDARD PLATE): inactive; negative | mutagenic call (Test System: AMES SALMONELLA TYPHIMURIUM, Strain/Indicator: TA1535, Metabolic Activation: NONE, Method: STANDARD PLATE): inactive; negative | mutagenic call (Test System: AMES SALMONELLA TYPHIMURIUM, Strain/Indicator: TA1535, Metabolic Activation: RAT, LIVER, S-9, AROCLOR 1254, Method: STANDARD PLATE): inactive; negative | mutagenic call (Test System: AMES SALMONELLA TYPHIMURIUM, Strain/Indicator: TA1538, Metabolic Activation: NONE, Method: STANDARD PLATE): inactive; negative | mutagenic call (Test System: AMES SALMONELLA TYPHIMURIUM, Strain/Indicator: TA1538, Metabolic Activation: RAT, LIVER, S-9, AROCLOR 1254, Method: STANDARD PLATE): inactive; negative | mutagenic call (Test System: Mouse lymphoma, Strain/Indicator: L5178Y (tk+/tk-), Metabolic Activation: None, Method: Suspension/plate): active; positive | mutagenic call (Test System: Mouse lymphoma, Strain/Indicator: L5178Y (tk+/tk-), Metabolic Activation: Rat, Liver, S-9, Aroclor 1254, Method: Suspension/plate): active; positive

Nc1ccc(Cl)c(Cl)c1Cl
mutagenic call [7]: inactive; negative | mutagenic call [8]: inactive; negative | mutagenic call [9]: inactive; negative | mutagenic call [10]: inactive; negative

Cc1cccc2c1ccc1c3ccccc3ccc21
mutagenic call (Test System: AMES SALMONELLA TYPHIMURIUM, Strain/Indicator: TA100, Metabolic Activation: RAT, LIVER, MICROSOMES, 1-METHYLCHRYSENE, Method: STANDARD PLATE): inactive; negative | mutagenic call (Test System: AMES SALMONELLA TYPHIMURIUM, Strain/Indicator: TA100, Metabolic Activation: RAT, LIVER, MICROSOMES, AROCLOR 1254, Method: STANDARD PLATE): inactive; negative | mutagenic call (Test System: AMES SALMONELLA TYPHIMURIUM, Strain/Indicator: TA100, Metabolic Activation: RAT, LIVER, MICROSOMES, Method: STANDARD PLATE): inactive; negative

OC1c2ccc3cccnc3c2C2OC2C1O (stereo not given)
mutagenic call [9]: active; positive
